Measurements as given in patent publication US11136409B2, “Compositions and methods for identification, assessment, prevention, and treatment of AML using USP10 biomarkers and modulators” (Dana-Farber Cancer Institute, Inc., priority 2016, dated 2021).
“Also recorded” adds a separate entry of the source. Where two headings read alike, the source gives them in different places.

Tests used:
[1] = system: PBMCs; assay: Treatment of PBMCs from healthy donors with USP10-targeting inhibitors; assay type: cell-based, human; details: Homo sapiens
Source text: (§1) Nomo-1, P31-FUJ, and NB4 were obtained from Dr. Gary Gilliland. MV4, 11 cells were obtained from Dr. Anthony Letai. Hel, K562, THP, U937, TF-1 and K052 cells were purchased from the American Type Culture Collection (ATCC) (Manassas, Va., USA). […] Cell lines were submitted for cell line authentication and were authenticated within 6 months of manuscript preparation through cell line short tandem repeat (STR) profiling (DDC Medical, Fairfield, Ohio and Molecular Diagnostics Laboratory, Dana Farber Cancer Institute). […] PBMCs were generously provided by Dr. Steven Treon and Dr. Guang Yang.
(§2) The CellTiter-Glo® assay (Promega, Madison, Wis.) was used for proliferation studies and carried out according to manufacturer instructions. Cell viability is reported as percentage of control (untreated) cells, and error bars represent the standard error of the mean for each data point.

[2] = system: AML primagraft (D835Y+, FLT3-ITD+) cells; assay: Treatment of mutant FLT3-expressing AML primagraft cells ex vivo; assay type: cell-based, human; details: Homo sapiens, read-out: IC50 (+/−S.D.) AML primagraft (D835Y+, FLT3-ITD+)
Description: All animal studies were performed according to protocols approved by the Dana-Farber Cancer Institute's Institutional Animal Care and Use Committee. […] Mice were sacrificed on day 21 of treatment. Bone marrow was flushed from mouse femurs, and spleens and livers were dissected and preserved first in formalin, followed 24 hours later by preservation in 70% ethanol. […] All AML primagraft samples used in the studies described herein were obtained through the Public Repository of Xenografts (proxe.org).
as §2

[3] = biological target: T1, human USP10 (residues 376-798) (Homo sapiens, UniProt Q14694); assay: In vitro USP10 activity assay (Ubiquitin-AMC); assay type: biochemical; details: ubiquitin-AMC as substrate; purified enzyme; read-out: USP10 biochemical IC50
T1 construct: A construct of human USP10 covering residues 376-798 in the pET28a vector; His-tag (cleaved yes); made in house; host or cells: E. coli BL21 (DE3)
T1 sequence (Q14694 376-798): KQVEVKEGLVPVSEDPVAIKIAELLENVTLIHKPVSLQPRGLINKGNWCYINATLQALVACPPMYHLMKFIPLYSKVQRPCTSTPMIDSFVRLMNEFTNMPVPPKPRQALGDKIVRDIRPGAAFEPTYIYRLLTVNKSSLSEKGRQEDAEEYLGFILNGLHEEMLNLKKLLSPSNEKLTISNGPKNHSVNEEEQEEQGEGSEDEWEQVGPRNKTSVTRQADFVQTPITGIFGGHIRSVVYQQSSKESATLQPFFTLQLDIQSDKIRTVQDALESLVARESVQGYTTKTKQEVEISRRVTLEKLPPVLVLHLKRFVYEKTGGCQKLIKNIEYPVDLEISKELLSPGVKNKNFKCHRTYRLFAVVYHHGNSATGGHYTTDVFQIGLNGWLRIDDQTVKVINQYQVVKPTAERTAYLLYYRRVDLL
Description: Protein expression and purification. A construct of human USP10 covering residues 376-798 in the pET28a vector was over-expressed in E. coli BL21 (DE3) in TB medium in the presence of […] of kanamycin. Cells were grown at 37° C. to an OD of 0.8, cooled to 17° C., induced with 500 μM isopropyl-1-thio-D-galactopyranoside, incubated overnight at 17° C., collected by centrifugation, and stored at −80° C. Cell pellets were sonicated in buffer A (50 mM HEPES (pH 7.5), 300 mM NaCl, 10% glycerol, 10 mM Imidazole, and 3 mM BME) and the resulting lysate was centrifuged at 30,000×g for 30 min. Ni-NTA beads (Qiagen) were mixed with lysate supernatant for 30 min and washed with buffer A. Beads were transferred to an FPLC-compatible column and the bound protein was washed with 15% buffer B (50 mM HEPES (pH 7.5), 300 mM NaCl, 10% glycerol, 300 mM Imidazole, and 3 mM BME) and eluted with 100% buffer B. Thrombin was added to the eluted protein and incubated at 4° C. overnight. The sample was then passed through a HiPrep 26/10 desalting column (GE Healthcare) pre-equilibrated with buffer A without imidazole, and the eluted protein was subjected to a second Ni-NTA step to remove His-tag and Thrombin. The eluent was concentrated and passed through a Superdex® 200 10/300GL column (GE Healthcare) in a buffer containing 20 mM HEPES (pH 7.5), 150 mM NaCl, and 1 mM DTT. Fractions were pooled, concentrated to 20 mg/ml, and frozen at −80° C.
In vitro USP10 activity assay. Recombinant USP10, residues 376-798, was tested for its activity in a Ubiquitin-AMC assay in presence or absence of inhibitors. For this assay, 10 nM USP10 were pre-incubated with different concentrations of inhibitors or DMSO as a control in 50 mM HEPES pH7.6, 0.5 mM EDTA, 11 uM ovalbumin, and 5 mM DTT. The reaction was incubated for 6 hours at room temperature prior to the addition of 2 uM Ubiquitin-AMC (Boston Biochem) substrate. The initial rate of the reaction was measured by collecting fluorescence data at one minute intervals over 30-minute period using a CLARIOstar® fluorescence plate reader at excitation and emission wavelength of 345 and 445 nm, respectively. The calculated initial rate values were plotted against inhibitor concentrations to determine IC50 values.

[4] = system: MOLM14 cells; assay: Immunoblot of FLT3, Beclin-1, AKT, ERK1/ERK2 in MOLM14 cells; assay type: cell-based, human; details: approximately 23 hours of treatment
Source text: (§3) The following antibodies were purchased from Cell Signaling Technology (Danvers, Mass.): total AKT (rabbit, #9272) and total p44/42 MAPK (Erk1/2) (3A7) (mouse, #9107) were used at 1:1000 dilution. Anti-GAPDH (D16H-11) XP (R) (rabbit mAb, #5174) was used at 1:1000 dilution. Beclin-1 (rabbit, #3738) was used at 1:1000. USP10 (D7A5) (rabbit, #8501) was used at 1:1000 dilution. P53 (rabbit, #9282) was used at 1:1000 dilution. β-tubulin (rabbit, #2146s) was used 1:1000.
(§4) FLT3/Flk-2 (C-20) (sc-479) and Ub (P4D1) (mouse, sc-8017) were purchased from Santa Cruz Biotechnology, Inc. (Dallas, Tex.) and used at 1:1000 dilution for immunoblotting. Anti-pTyr (mouse, clone 4G10) was purchased from Upstate Biotechnology (Lake Placid, N.Y.) and was used at 1:1000 dilution. Anti-HAUSP/USP7 antibody (rabbit, ab4080) and anti-ubiquitin antibody (rabbit, ab7780) were purchased from Abcam (Cambridge, Mass.) and used at 1:1000 dilution.
(§5) Protein lysate preparation, immunoblotting, and immunoprecipitation were carried out as previously described in Weisberg et al. (2002) Cancer Cell 1:433-443.

[5] = system: USP10; assay: USP10 target engagement in cells, labeling with HA-Ub-VS; assay type: cell-based; details: lysates from live treated cells
Description: Cells were harvested, washed with PBS, and lysed in 1% NP-40, 10% glycerol, 2% sodium orthovanadate, and HALT protease inhibitor cocktail (ThermoFisher). Lysate was diluted to 50 ug in 30 uL lysis buffer with 1% DTT and incubated on ice for 15 minutes. 0.25 ug HA-Ub-VS was added, and the sample was gently rocked at room temperature for 30 minutes, then denatured with LDS sample buffer.

[6] = system: Ba/F3-FLT3-ITD cells; assay: Proliferation of Ba/F3-FLT3-ITD cells; assay type: cell-based, murine; details: concentration up to 20 μM; approximately 72 hours
Source text: as §1, §2

[7] = system: Ba/F3-FLT3-ITD cells; assay: Immunoblot of FLT3 / Beclin-1 in Ba/F3-FLT3-ITD cells; assay type: cell-based, murine; details: concentration up to 20 μM
Source text: as §3, §4, §5

[8] = system: primary tumor cells from FLT3-ITD positive AML patients and FLT3 mutant primagrafts; assay: Survival of primary AML patient cells and FLT3 mutant primagrafts; assay type: cell-based, human; details: approximately 72 hrs of treatment
Source text: as §2, with “The trypan blue exclusion assay has been previously described in Weisberg et al. (2002) Cancer Cell 1:433-443 and was used for quantification of cells prior to seeding for CellTiter-Glo® assays. The” for “The”
Mononuclear cells were isolated from samples from AML patients identified as harboring mutant FLT3. Cells were tested in liquid culture (DMEM supplemented with 20% FBS) in the presence of different concentrations of single and combined agents. All blood and bone marrow samples from AML patients were obtained under approval of the Dana Farber Cancer Institute Institutional Review Board.

[9] = biological target: USP10 (Homo sapiens, UniProt Q14694); assay: MALDI TOF DUB assay with diubiquitin substrate; assay type: biochemical; details: diubiquitin (K11) as substrate
Sequence of USP10 (Homo sapiens, UniProt Q14694) (Q14694 whole entry): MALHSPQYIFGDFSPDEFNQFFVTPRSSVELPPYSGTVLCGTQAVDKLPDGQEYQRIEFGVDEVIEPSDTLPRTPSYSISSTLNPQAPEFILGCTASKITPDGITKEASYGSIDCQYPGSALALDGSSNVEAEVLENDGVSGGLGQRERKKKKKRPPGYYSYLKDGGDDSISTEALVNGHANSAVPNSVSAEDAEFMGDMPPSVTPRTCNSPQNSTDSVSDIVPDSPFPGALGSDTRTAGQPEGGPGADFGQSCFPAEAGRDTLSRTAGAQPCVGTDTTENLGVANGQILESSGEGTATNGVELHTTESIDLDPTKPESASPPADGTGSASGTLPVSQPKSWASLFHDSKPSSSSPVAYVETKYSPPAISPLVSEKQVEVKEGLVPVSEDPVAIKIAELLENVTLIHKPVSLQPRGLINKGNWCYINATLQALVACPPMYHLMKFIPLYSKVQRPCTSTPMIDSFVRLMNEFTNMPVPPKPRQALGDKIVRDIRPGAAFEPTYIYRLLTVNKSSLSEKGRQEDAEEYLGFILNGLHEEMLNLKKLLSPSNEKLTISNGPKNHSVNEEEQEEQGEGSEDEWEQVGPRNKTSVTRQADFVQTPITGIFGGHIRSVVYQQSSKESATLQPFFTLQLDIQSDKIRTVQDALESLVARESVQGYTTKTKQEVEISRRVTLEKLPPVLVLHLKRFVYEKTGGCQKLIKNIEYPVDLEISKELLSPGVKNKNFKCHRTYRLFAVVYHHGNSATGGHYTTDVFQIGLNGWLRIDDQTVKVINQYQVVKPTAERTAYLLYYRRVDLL
Description: Thirty-one human DUBs were freshly diluted in the reaction buffer (40 mM Tris-HCl, pH 7.6, 5 mM DTT, 0.005% BSA) at different concentrations (see Table 10). […] The enzymes were pre-incubated with the compounds for 30 min at room temperature at 10 μM final concentration. 0.48 μl of di-ubiquitin topoisomers were added to the reaction mixture to initiate the reaction. The reaction was sealed and incubated for 30 min at room temperature and stopped by adding TFA to a final concentration of 2% (v/v).
Mass spectrometry data was acquired on an UltrafleXtreme MALDI-TOF mass spectrometer (Bruker Daltonics) with Compass 1.3 control and processing software. The sample carrier was taught before each analysis to optimize and centre laser shooting. […] Samples were analysed in automatic mode (AutoXecute, Bruker Daltonics). […] An amount of 3,500 shots were summed up in “random walk” and with “large” smartbeam laser focus. Spectra were automatically calibrated on the ^15N-Ub m/z and processed using smoothing (Savitzky-Golay algorithm) and baseline subtraction (‘TopHat’) for reproducible peak annotation on non-resolved isotope distributions: one cycle, 0.2 m/z for the width. For area calculation, the complete isotopic distribution was taken into account. […]

[10] = system: FLT3-ITD+, D835Y+ AML primagraft; assay: Primagraft study in NSG mice; assay type: in vivo; details: 15 mg/kg
Description: All animal studies were performed according to protocols approved by the Dana-Farber Cancer Institute's Institutional Animal Care and Use Committee. […]. Mice were sacrificed on day 21 of treatment. Bone marrow was flushed from mouse femurs, and spleens and livers were dissected and preserved first in formalin, followed 24 hours later by preservation in 70% ethanol. […]; All AML primagraft samples used in the studies described herein were obtained through the Public Repository of Xenografts (proxe.org).

[11] = system: Ba/F3-FLT3-ITD-luc+ cells; assay: Non-invasive in vivo bioluminescence study
[12] = 24 hr assay, PBMC#1, read-out: IC50 (+/−S.D.) PBMC#1
[13] = 24 hr assay, PBMC#2, read-out: IC50 (+/−S.D.) PBMC#2

`CS(=O)(=O)c1ccc(NC(=O)c2cc(C#N)c(Sc3c(Cl)cncc3Cl)s2)cc1` [1247825-37-1, reference compound] showed an IC50 [1, 12] of 14.9 µM, an IC50 [1, 13] of 16.6 µM and an IC50 ([2]; 24 hr assay) of 2.5 µM. The IC50 [3] was 36 µM, the “Expression of AKT and ERK1/ERK2 downstream of FLT3” value [4] was “unchanged” and the “Inhibitor concentration blocking USP10 labeling by HA-Ub-VS” value [5] was “low micromolar range”.
`O=C(CCc1ccccc1)N1CCC(O)(Cn2cnc3cc(Cl)ccc3c2=O)CC1` [Compound 2] was tested, and the Cell viability [6] was “little impact on cell viability”, the FLT3 levels [7] was “did not lead to reduced FLT3 levels” and the “Survival of patient samples and primagrafts” value [8] was “little to no effect”.
Work on `CC(=O)c1cc([N+](=O)[O-])c(Sc2ccc(F)cc2F)s1` [P22077] yielded an IC50 [1, 12] of 10.6 µM, an IC50 [1, 13] of 7.8 µM and an IC50 ([1]; 72 hr assay, PBMC#1, read-out: IC50 (+/−S.D.) PBMC#1) of 6.9 µM. The IC50 ([1]; 72 hr assay, PBMC#2, read-out: IC50 (+/−S.D.) PBMC#2) was 4.4 µM, the IC50 ([2]; 24 h) was 6.9 µM and the IC50 ([2]; 72 h) was 2.6 µM. The IC50 [3] was 15 µM, the IC50 [9] was 6 µM and the Tolerability ([10]; 21-day treatment period) was “generally well-tolerated; also recorded: generally well tolerated”. For the same compound, the Average weight loss ([10]; 21 days, same for vehicle-treated, none below 15% weight loss) was 2 to 3 g, the “Reduction in luciferase-positive signal in bone marrow versus vehicle” value ([11]; 50 mg/kg IP BID, 4 days) was “approximately 2 fold” and the “Lower percentage of FLT3 expression in bone marrow versus vehicle” value ([11]; 50 mg/kg IP BID, 4 days, flow cytometry) was “approximately 2 fold”. For the same compound, the Vital organ toxicity ([11]; mouse studies) was “no evidence of vital organ toxicity” and the “Body weight versus vehicle” value ([11]; treated for up to 11 days) was “no significant difference in weight”.
